This is an account of results in patent US11753388B2, “Composition for inhibiting alpha-glucosidase and application thereof” (ZHENGZHOU FRUIT RESEARCH INSTITUTE, CHINESE ACADEMY OF …, priority 2021, dated 2023).

The test system of this assay is α-glucosidase. The assay can be described thus: in vitro α-glucosidase inhibition test (pNPG substrate, OD 405 nm); combination index by Chou-Talalay method with CompuSyn. As to conditions: single compound. In kind it is biochemical, Saccharomyces cerevisiae. The protocol:
α-glucosidase (coming from Saccharomyces cerevisiae, Sigma);
an α-glucosidase solution with a concentration being 0.25 U/mL and a substrate p-nitrophenyl-α-D-glucopyranoside (pNPG) solution with a concentration being […] were prepared by using a PBS buffer solution (0.1 mol L−1 pH 6.8).
40 μL α-glucosidase solution was accurately removed, 100 μL of sample solution to be tested was added respectively, reacted for 10 min at 37° C., then 60 μL of substrate p-nitrophenyl-α-D-glucopyranoside (pNPG) solution was added, reacted for 15 min at 37° C., and an enzyme-linked analyzer measured at a wavelength of 405 nm.
First, daidzein, taxifolin, and 3-O-methyl quercetin were respectively prepared into 10 mg/mL mother solutions by using dimethyl sulfoxide (DMSO); and then a sample solution of the specific concentration of the daidzein, taxifolin, and 3-O-methyl quercetin and composition was prepared with PBS buffer solution.

Take `COc1cc(O)c2c(=O)cc(-c3ccc(O)cc3)oc2c1` [Genkwanin]: where the note is “35 μg/mL”, the Inhibition rate was 70.12 ± 5.5%.
For the compound `O=C(/C=C/c1ccc(O)cc1)c1ccc(O)cc1O` [Isoliquiritigenin], under “4 μg/mL”, the Inhibition rate was 35.2 ± 2.5%.
Take `O=C(CCc1ccc(O)cc1)c1c(O)cc(O)cc1O` [Phloretin]: the Inhibition rate (8 μg/mL) is reported as 46.3 ± 2.7%.
Take `O=c1cc(-c2ccccc2)oc2cc(O)c(O)c(O)c12` [Baicalein]: the Inhibition rate (10 μg/mL) stood at 38.8 ± 3.3%.
Consider `COc1ccc(-c2oc3cc(O)cc(O)c3c(=O)c2O)cc1` [Kaempferide], for which the Inhibition rate (5 μg/mL) is 30.8 ± 1.3%.
Herbacetin: the Inhibition rate (2.5 μg/mL) is given as 35.2 ± 1.2%.
In the case of Chrysin, where the note is “100 μg/mL”, the Inhibition rate worked out at 51.2 ± 5.5%.
As for `O=c1cc(-c2ccc(O)c(O)c2)oc2cc(O)cc(O)c12` [Luteolin], where the note is “1 μg/mL”, the Inhibition rate worked out at 45.5 ± 2.7%.
On to `COc1ccc(-c2coc3cc(O)cc(O)c3c2=O)cc1` [Biochanin A], for which the Inhibition rate (0.7 μg/mL) stood at 38.5 ± 2.1%.
Regarding `O=C1c2c(O)cc(O)cc2O[C@H](c2ccc(O)c(O)c2)[C@H]1O` [Taxifolin], the Inhibition rate stood at 40.12±2.1% (25 μg/mL), 54.5±2.4% (30 μg/mL) and 75.21±3.4% (50 μg/mL).
As for `O=c1c(O)c(-c2ccc(O)c(O)c2)oc2cc(O)ccc12` [Fisetin], under “6 μg/mL”, the Inhibition rate was found to be 46.5 ± 2.3%.
Consider `O=C1c2c(O)cc(O)cc2OC(c2ccc(O)cc2O)C1O` (stereo not shown) [Dihydromorin], for which the Inhibition rate (15 μg/mL) was determined as 25.7 ± 4.7%.
With `COc1ccc(-c2coc3cc(O)ccc3c2=O)cc1` [Formononetin], for the setting “20 μg/mL”, the Inhibition rate was 60.07 ± 5.3%.
As for `O=C(O[C@@H]1Cc2c(O)cc(O)cc2O[C@@H]1c1cc(O)c(O)c(O)c1)c1cc(O)c(O)c(O)c1` [Epigallocatechin gallate], the Inhibition rate (0.06 μg/mL) is listed as 42.5 ± 3.5%.
For `COc1ccc(C2CC(=O)c3c(O)cc(O)cc3O2)cc1O` (stereo not shown) [Hesperetin], the Inhibition rate (30 μg/mL) is on record as 45.2 ± 3.2%.
On to `O=c1c(-c2ccc(O)cc2)coc2cc(O)ccc12` [Daidzein], for which the Inhibition rate worked out at 44.5±2.5% (8 μg/mL) and 52.25±2.5% (10 μg/mL).
On to `COc1c(-c2ccc(O)c(O)c2)oc2cc(O)cc(O)c2c1=O` [3-O-methyl quercetin, 3-O-Methyl Quercetin], for which the Inhibition rate (2 μg/mL) stood at 46.23±1.2%, the Inhibition rate (4 μg/mL) is given as 53.52±3.2% and the Inhibition rate (6 μg/mL) is on record as 61.72±3.5%.
With `Oc1cc(O)c2cc(O)c(-c3cc(O)c(O)c(O)c3)[o+]c2c1.[Cl-]` [Delphinidin], the Inhibition rate (1 μg/mL) is reported as 50.2 ± 4.3%.
Take `Oc1cc(O)c2cc(O)c(-c3ccc(O)c(O)c3)[o+]c2c1.[Cl-]` [Cyanidin]: the Inhibition rate (0.7 μg/mL) is recorded as 47.5 ± 1.4%.
In the case of Vitexin, the Inhibition rate (10 μg/mL) is given as 29.2 ± 1.4%.
Take `O=c1c(O)c(-c2cc(O)c(O)c(O)c2)oc2cc(O)cc(O)c12` [Myricetin]: where the note is “1 μg/mL”, the Inhibition rate is recorded as 41.2 ± 1.5%.
Still for that read-out and setting: the same measure for `O=c1c(O)c(-c2ccc(O)cc2O)oc2cc(O)cc(O)c12` [Morin]: 41.2 ± 2.7%.
Take `O=c1c(O)c(-c2ccc(O)cc2)oc2cc(O)cc(O)c12` [Kaempferol]: the Inhibition rate (2.5 μg/mL) is given as 40.83 ± 2.3%.
